A word on the melting point: it is the temperature of the solid-liquid transition.

Molecules are shown by their SMILES. Structures can show the parent of a compound that is named as a salt.

`CN(C)CCOCCOc1ccc(-c2cccc(N)n2)c2ccccc12` (as salt: hydrochloride) [Example 3, 6-[4-(2-(2-Dimethylaminoethoxy)-ethoxy)-naphthalen-1-yl]-pyridin-2-ylamine]: the melting point is 60 to 75 °C (dec.).

Turning to `Nc1cccc(-c2ccc(OCCO)c3c2CCCC3)n1` (as salt: hydrochloride) [Example 2, 6-[4-(2-Hydroxy-ethoxy)-5,6,7,8-tetrahydro-naphthalen-1-yl]-pyridin-2-ylamine], the melting point lay within 170 to 172 °C.

The record behind these values is patent US6372768B1, “2-aminopyridines containing fused ring substituents” (Pfizer INC, priority 1999, dated 2002).
